Values of other authors, collected in US12427127B2 (priority 2018, dated 2025).

In the case of `O=NN(CCCl)C(=O)NCCCl` [Carmustine, 1,3-bis (2-chloroethyl)-1-nitrosourea], the “Solubility in alcohol and lipids” value is given as “highly soluble” and the Solubility in water is given as “poorly soluble”.
